According to patent publication US7705045B2, “Prodrugs built as multiple self-elimination-release spacers” (Syntarga, B.V., priority 2003, dated 2010):
Values after ≈ are worked out from the molar mass of the structure shown. “Also recorded” adds a separate entry of the source. Each block holds one molecule with its values, some of them ahead of it.

Key:
MCF-7; breast cancer = experiment: SRB anti-proliferative test, MCF-7; format: cell-based, human; conditions: 5 days of incubation
Description: (§1) Cytoxicity of multiple release spacers 16 and 23. The anti-proliferative effect of the monomeric spacers was determined in vitro applying seven well-characterised human tumor cell lines and the microculture sulphorhodamine B (SRB) test. The anti-proliferative effects were determined and expressed as ID50 values (ng/mL), which are the (pro)drug concentrations that gave 50% inhibition of cell growth when compared to control cell growth after 5 days of incubation.

EVSA-T; breast cancer = experiment: SRB anti-proliferative test, EVSA-T; format: cell-based, human; conditions: 5 days of incubation
Description: as §1

WIDR; colon cancer = experiment: SRB anti-proliferative test, WIDR; format: cell-based, human; conditions: 5 days of incubation
Description: as §1

IGROV; ovarian cancer = experiment: SRB anti-proliferative test, IGROV; format: cell-based, human; conditions: 5 days of incubation
Description: as §1

M19; melanoma = experiment: SRB anti-proliferative test, M19; format: cell-based, human; conditions: 5 days of incubation
Description: as §1

A498; renal cancer = experiment: SRB anti-proliferative test, A498; format: cell-based, human; conditions: 5 days of incubation
Description: as §1

[1] = test system: H226; non-small cell lung cancer; experiment: SRB anti-proliferative test, H226; format: cell-based, human; conditions: 5 days of incubation
Description: as §1

[2] = test system: seven well-characterised human tumor cell lines; experiment: Cytotoxicity in a panel of seven human tumor cell lines; format: cell-based
Description: Upon removal or transformation of the specifier V in the compounds or prodrugs disclosed in this invention, thus upon unmasking of B of the branched spacer or spacer system coupled to V, under physiological conditions, the reactive intemiediate(s) formed after self-elimination is (are) likely to be trapped by water, thereby regenerating molecules like aminodiol 23 and/or aminotriol 16. When a multiple release conjugate or prodrug constructed with one of the monomers disclosed in this invention is used for drug delivery purposes, the degradation products of the prodrug or (bio)conjugate after the multiple self-elimination cascade must be non-toxic (except from drugs to be released in tumor targeting approaches). Therefore, we have tested the aminotriol monomer 16 and aminodiol monomer 23 for their cytotoxicity in a panel of seven weul-characterized human tumor cell lines. Both compounds turned out to be non-toxic (see example 33).
Cytoxicity of multiple release spacers 16 and 23. The anti-proliferative effect of the monomeric spacers was determined in vitro applying seven well-characterised human tumor cell lines and the microculture sulphorhodamine B (SRB) test. […]

[3] = Stability of reference compounds on treatment with zinc and acetic acid; format: physicochemical; conditions: zinc powder, MeOH/THF/AcOH, Rt, 16 h
Description: (§2) Stability of 35. Treatment of 35 with Zinc (see FIG. 28). Dibenzyl carbonate 35 (13 mg) was dissolved in 2.5 mL MeOH/THF/AcOH (1.5/0.5/0.5). Zinc powder was added and the reaction mixture was stirred at Rt for 16 h. […] The mixture was filtered over hyflo and the residue was washed with MeOH/dichloromethane.
as §2, with “36.” for “35.”, “36” for “35”, “Paclitaxel-2′-carbonate 36 (3” for “Dibenzyl carbonate 35 (13”, “MeOH/dichloromethane. The filtrate was concentrated in vacuo.” for “MeOH/dichloromethane.”

[4] = Release of leaving groups upon reduction of the nitro group with zinc and acetic acid (TLC, 1H-NMR); format: physicochemical
Description: (§3) Proof of principle for triple elimination. Formation of benzyl alcohol upon reduction of 13 (see FIG. 19). Compound 13 was dissolved in 3 mL of MeOH/AcOH/THF (1.5/0.5/1). Zinc powder was added and the reaction mixture was stirred at Rt. […] The mixture was filtered over hyflo and the residue was washed with MeOH/dichloromethane.
as §3, with “phenethyl” for “benzyl”, “14” for “13”, “3.75” for “3”, “(2/0.75/1).” for “(1.5/0.5/1).”
Reduction of the nitro group in 15. Failure of elimination of benzylamine (see FIG. 20). Compound 15 (16 mg) was dissolved in 10 mL of MeOH/AcOH (8/2). Zinc powder was added and the reaction mixture was stirred at Rt. […] The mixture was filtered over hyflo and the residue was washed with MeOH/dichloromethane. The filtrate was concentrated in vacuo, the mixture was freeze-dried. Under a number of varied circumstances (different deuterated solvent combinations, different pH (acidic, neutral, and basic), different buffers), ^1H-NMR did hardly show formation of free benzylamine. After 2 days, maximally 33 percent of free benzylamine was observed (^1H-NMR).
Proof of principle for double elimination. Formation of paclitaxel upon reduction of 22 (see FIG. 22). Nitrocinnamyl biscarbonate 22 was dissolved in 3.5 mL of MeOH/AcOH/THF (2/0.5/1). Zinc powder was added and the reaction mixture was stirred at Rt. […] The mixture was filtered over hyflo and the residue was washed with MeOH/dichloromethane. The filtrate was concentrated in vacuo, dioxane was added and the resulting solution was freeze-dried.
Proof of principle for quadruple elimination. Formation of paclitaxel upon reduction of 26 (see FIG. 23). Compound 26 was dissolved in 3.25 mL MeOH/AcOH/TF (1.5/0.75/1). Zinc powder was added and the reaction mixture was stirred. […] After 16 h, the mixture was filtered over hyflo and the residue was washed with MeOH/dichloromethane. […]

[5] = zinc powder, MeOH/AcOH(/THF), Rt

Molecule: Nc1ccc(C=C(CO)CO)cc1 [Compound 23]
ID50 (MCF-7; breast cancer): > 0.0625 µg/mL | ID50 (EVSA-T; breast cancer): > 0.0625 µg/mL | ID50 (WIDR; colon cancer): > 0.0625 µg/mL | ID50 (IGROV; ovarian cancer): > 0.0625 µg/mL | ID50 (M19; melanoma): > 0.0625 µg/mL | ID50 (A498; renal cancer): 0.056784 µg/mL (≈ 0.317 µM) | ID50 [1]: 0.042406 µg/mL (≈ 0.237 µM) | cytotoxicity [2]: non-toxic

Molecule: O=C(OCc1ccccc1)OCc1ccccc1 [Compound 35, Dibenzyl carbonate]
stability on treatment with zinc and acetic acid (TLC, 1H-NMR) [3]: did not show any degradation; also recorded: no formation of new compounds

release of leaving groups by 1H-NMR ([4]; after reduction with zinc/acetic acid): complete release of free benzylamine
Molecule: O=C(NCc1ccccc1)OCc1ccc([N+](=O)[O-])cc1 [Compound 34]
formation of free leaving group by thin layer chromatography [4, 5]: formation of a substantial amount of benzylamine | time to disappearance of starting compound (thin layer chromatography) [4, 5]: 100 min

Molecule: 2′-O-cinnamyloxycarbonylpaclitaxel [Compound 36]
stability on treatment with zinc and acetic acid (TLC, 1H-NMR) [3]: did not show any degradation; also recorded: no formation of new compounds
